Source: PMC4628094, “In Vitro Assessment of Uptake and Lysosomal Sequestration of Respiratory Drugs in Alveolar Macrophage Cell Line NR8383” (Pharmaceutical Research, 2015)
Where two headings read alike, the source gives them in different places.

Columns and labels:
[1] = Physicochemical properties, experimental literature values (Table I); conditions: classification in Table I
[2] = experimental value; ref ([21])-([30]) per drug, Table I; cited from earlier work
[3] = test system: Lung granule fraction containing lysosomes from male Wistar rats; set-up: method as in ref (6) (a number printed in a supplementary file, which may have a reference list of its own: not looked up in the article's list); conditions: NH4Cl 10 mM, drug 1 µM, 10 min; ref (6); cited from earlier work
NR8383 cells [4] = assay: LysoTracker Red (LTR) confocal assessment of lysosomal sequestration in NR8383; format: cell-based, rat; conditions: NH4Cl 20 mM, monensin 5 μM, nigericin 10 μM with 200 nM LTR
[5] = test system: Lung tissue slices from male Sprague-Dawley rats; conditions: monensin 10 µM, desipramine, diazepam 5 µM, chloroquine, thiopental 10 µM, 60 min, ref (3); cited from earlier work
[6] = test system: NR8383 cell line and granule fraction (containing lysosomes); conditions: NH4Cl 10 mM, drug 50 µM, ref (12), cited from earlier work
[7] = test system: Brain slices from male Wistar rats; set-up: method as in ref (10) (a number printed in a supplementary file, which may have a reference list of its own: not looked up in the article's list); conditions: drug 5 µM, 60 min, ref (10), cited from earlier work; for Reduction in total uptake (%): NH4Cl 20 mM; for Reduction of total uptake (%): monensin 10 µM
[8] = test system: Lung tissue slices from male Wistar rats; set-up: method as in ref (8) (a number printed in a supplementary file, which may have a reference list of its own: not looked up in the article's list); conditions: drug 5 µM, 60 min, ref (8), cited from earlier work
[9] = test system: Liver tissue slices from male Wistar rats; set-up: method as in ref (8) (a number printed in a supplementary file, which may have a reference list of its own: not looked up in the article's list); conditions: drug 5 µM, 60 min, ref (8), cited from earlier work
[10] = test system: Lung tissue slices from male Wistar rats; set-up: method as in ref (9) (a number printed in a supplementary file, which may have a reference list of its own: not looked up in the article's list); conditions: drug 5 µM, 60 min, ref (9), cited from earlier work
[11] = test system: Liver tissue slices from male Wistar rats; set-up: method as in ref (9) (a number printed in a supplementary file, which may have a reference list of its own: not looked up in the article's list); conditions: drug 5 µM, 60 min, ref (9), cited from earlier work
NR8383 cells [12] = assay: Lysosomal sequestration studies in NR8383 with NH4Cl, monensin and nigericin; conditions: for % Reduction in Kp by NH4Cl: NH4Cl 20 mM
Experimental: (§1) The extent of accumulation of drugs in lysosomes was assessed using the same uptake methodology, as described above in the absence and presence of NH4Cl and ionophores, monensin and nigericin. […] In addition, a range of incubation conditions was explored, including pre-incubation and co-incubation alone and combined together. Once the conditions were optimised, further experiments were performed with 20 mM NH4Cl co-incubated with investigated drugs. […] For incubations with monensin and nigericin, all drugs were prepared at 5 μM concentration and the incubations were carried out for 5 min (single time point). Following the treatment of the cell monolayers with drug alone or drug with the agents mentioned, incubations were stopped by washing of the cells with ice-cold DPBS as described above, followed by cell lysis in deionised water. All incubations were carried out in duplicate and experiments were performed for three separate occasions. The removed incubation media were retained for the measurement of drug concentrations and subsequent determination of Kp for each compound. Analysis of samples in LC-MS/MS was performed after cells were kept at −20°C overnight.
(§2) Kp and CLuptake were determined as described above for each drug both under control condition and in the presence of a chemical agent affecting the pH gradient between cytosol and lysosomes. The reduction in Kp and CLuptake of each drug in the presence of the chemical agents was expressed as a percentage relative to control and used as an indicator of the extent of lysosomal sequestration. A 50% reduction in both parameters was set as a cut-off for lysosomal accumulation, while also taking into account the physicochemical properties of the compounds (Table I) and the uncertainty associated with the experimental data.
(§3) The in vitro parameters were calculated on at least three separate occasions and the mean data were reported. When assessing the extent of lysosomal sequestration, the control and chemical agent treated cells were compared using the two-tailed, paired t-test in order to determine statistically significant difference between the two conditions. Values were reported as significant when p < 0.05.

[13] = as above; conditions: rat, NR8383 cells; for Kp at 10 min, 5 μM: NR8383, 5 μM drug; for Kp at 10 min, 20 µM: NR8383, 20 µM drug
Experimental: as §1, §2, §3

NR8383 cells [14] = assay: Drug uptake in NR8383 at 37 and 4°C (CLuptake, CLdiff, Kp); conditions: NR8383, 5 μM; CLdiff relative to CLuptake
Experimental: (§4) The studies were carried out in a 24-well plate format and the in vitro conditions were optimised in terms of cell detachment method from culture flasks, coating type of 24-well plates, seeding density, culturing time and drug incubation time points. Briefly, for cell detachment, gentle scraping versus Mg^2+-Ca^2+ free DPBS treatment of cells in culture flasks were tested. Considering the semi-adherent nature of AMs, cell seeding into non-coated, collagen-I and poly-D-lysine coated 24-well plates was investigated for cell attachment, distribution in the wells and detachment following DPBS washes during the uptake experiments. In addition, seeding densities of 0.36 and 0.72 × 10^6 cells per well were assessed with respect to cell attachment, confluency following culture (plating efficiency) and potential cell detachment following DPBS washes. Culturing time ranging from 4 to 24 h was investigated for optimal cell attachment before carrying out uptake experiments. Uptake rate and Kp data were normalised by cell number determined indirectly by measuring the amount of protein in samples by bicinchoninic acid (BCA) protein assay (Thermo Scientific, Loughborough, UK). Following the optimisation, detachment of NR8383 from cell culture flasks was performed by gentle scraping prior to cell counting and seeding into collagen-I coated 24-well plates at 0.5 × 10^6 cells per well. Cells were cultured for 16 h at 37°C, 5% CO2 (CO2 incubator, MCO-17AIC, Sanyo Biomedical, Loughborough, UK) before uptake studies performed over 1 to 10 min period.
(§5) The drug uptake in NR8383 corresponding to these conditions was described by total uptake (CLuptake) and passive diffusion (CLdiff) clearance terms, respectively. […] Substrate solutions were prepared by dilution of the stock solutions in DPBS resulting in final DMSO content < 1%. Uptake studies were performed in the presence of 1 mM ABT, a nonspecific P450 inhibitor, in order to avoid any potential impact of phase I metabolism. […] Following microscopy, the CGM was removed, cells were washed twice with 800 μL of either pre-warmed or ice-cold DPBS (for experiments at 37 and 4°C, respectively) and pre-incubation with 500 μL of pre-warmed or ice-cold ABT/DPBS was carried out for 20 min. Where ABT pre-treatment was not necessary, cell monolayers were treated with 500 μL of DPBS only. Once pre-incubation buffer was removed from the cell monolayers, incubations were started by addition of 400 μL of substrate solution (pre-warmed or ice-cold) in each well. Each substrate was incubated with the cells for 1, 2, 5 and 10 min and each time point at 37°C and 4°C. For 37°C experiments, incubation was carried out on a dry heater block maintained at 37°C throughout the experiment (Tecam Dri-block DB-3, Tecam, Princeton, NJ) and for 4°C experiments, the procedure was carried out on ice. Incubation with substrate was stopped by removal of the media with drug solution and washing the monolayers three times with 800 μL ice-cold DPBS. The back-diffusion of the drug from the cell into the medium was considered to be negligible under these conditions. The removed incubation media were retained for the measurement of drug medium concentrations and subsequent determination of Kp for each drug. The cells were lysed by addition of 200 μL ice-cold deionised water; cell lysates were kept at −20°C overnight and then processed further for LC-MS/MS analysis. Experiments were performed on three or more separate occasions for each drug investigated. […] The amount of protein per well was measured using a BSA calibration curve and absorbances read at 562 nm (S22 Boeco UV-Visible Spectrophotometer, Hamburg, Germany).

[15] = as above; conditions: rat, NR8383 cells, Kp (cell-to-medium concentration ratio), NR8383, 5 μM, 37°C, 10 min
Experimental: as §4, §5

CO[C@H]1/C=C/O[C@@]2(C)Oc3c(C)c(O)c4c(O)c(c(/C=N/N5CCN(C)CC5)c(O)c4c3C2=O)NC(=O)/C(C)=C\C=C\[C@H](C)[C@H](O)[C@@H](C)[C@@H](O)[C@@H](C)[C@H](OC(C)=O)[C@@H]1C [Rifampicin]
Acid–base Property [1]: Zwitterion | LogD7.4 [2]: 0.3 | pKa_b (basic pKa) [2]: 6.70

CN(C)CCCN1c2ccccc2Sc2ccc(Cl)cc21 [Chlorpromazine]
Reduction in total uptake (%) [3]: 8%

Cl.N [NH4Cl, ammonium chloride]
reduced LTR fluorescent signal (NR8383 cells [4]): up to 85%

CCCC(C)C1(CC)C(=O)NC(=S)NC1=O (centres unmarked) [Thiopental]
Reduction of total uptake (%) [5]: 10%

CC(CN1c2ccccc2Sc2ccccc21)N(C)C (centres unmarked) [Promethazine]
Reduction in total uptake (%) [3]: 17%

CC[C@H]1OC(=O)[C@H](C)[C@@H](O[C@H]2C[C@@](C)(OC)[C@@H](O)[C@H](C)O2)[C@H](C)[C@@H](O[C@@H]2O[C@H](C)C[C@H](N(C)C)[C@H]2O)[C@](C)(O)C[C@@H](C)CN(C)[C@H](C)[C@@H](O)[C@]1(C)O [Azithromycin]
Reduction in total uptake (%) ([6]; Granule, after subcellular fractionation, 30 min): 72% | Reduction in total uptake (%) ([6]; before subcellular fractionation, azithromycin 120 min, clarithromycin 60 min): 97%

CSc1ccc2c(c1)N(CCC1CCCCN1C)c1ccccc1S2 (centres unmarked) [Thioridazine]
Reduction in total uptake (%) [7]: 62% | Reduction of total uptake (%) [7]: 58% | Reduction in total uptake (%) ([8]; NH4Cl 20 mM): 41% | Reduction of total uptake (%) ([8]; monensin 10 µM): 35% | Reduction in total uptake (%) ([9]; NH4Cl 20 mM): 75% | Reduction of total uptake (%) ([9]; monensin 10 µM): 82%

CN1CCN(CCCN2c3ccccc3Sc3ccccc32)CC1 [Perazine]
Reduction in total uptake (%) ([10]; NH4Cl 20 mM): 58% | Reduction of total uptake (%) ([10]; monensin 10 µM): 71.6% | Reduction in total uptake (%) ([11]; NH4Cl 20 mM): 61% | Reduction of total uptake (%) ([11]; monensin 10 µM): 65% | Reduction in total uptake (%) [7]: 55% | Reduction of total uptake (%) [7]: 55%

CCCC1O[C@@H]2C[C@H]3[C@@H]4CCC5=CC(=O)C=C[C@]5(C)[C@H]4[C@@H](O)C[C@]3(C)[C@]2(C(=O)CO)O1 (some centres unmarked) [Budesonide]
Acid–base Property [1]: Neutral | % Reduction in Kp by NH4Cl (NR8383 cells [12]; NR8383, 5 μM drug): 10 ± 7.8% | % Reduction in Kp by NH4Cl (NR8383 cells [12]; NR8383, 20 µM drug): 6.6 ± 4.1% | % Reduction in CLuptake by NH4Cl (20 mM) (NR8383 cells [12]; NR8383, at 5 µM drug): 18 ± 15% | reduction in Kp in the presence of chemical agents (summary in Discussion) (NR8383 cells [12]; NR8383, NH4Cl, monensin, nigericin): < 15% | Kp at 10 min, 5 μM ([13]; Kp + NH4Cl, 20 mM NH4Cl co-incubated, 10 min): 28.1 ± 7.12 | Kp at 10 min, 20 µM ([13]; Kp + NH4Cl, 20 mM NH4Cl): 31 ± 12 | Kp at 10 min, 5 μM ([13]; Kp Control, control): 31.5 ± 8.46 | Kp at 10 min, 20 µM ([13]; Kp Control, control): 34 ± 12.5 | Contribution of passive (%) (NR8383 cells [14]): 97.2% | Kp at 10 min, 5 μM [15]: 37.6 ± 11.4
